Assay results published in PMC8496750, “Identification of the organic anion transporting polypeptides responsible for the hepatic uptake of the major metabolite of epyrifenacil, S‐3100‐CA, in mice” (Pharmacology Research & Perspectives, 2021).

What was measured:
mouse Oatp1a1 = target: T1, mouse Oatp1a1 (Mus musculus, UniProt Q9QXZ6); assay: in vitro; conditions: 293FT cells transiently transfected with mouse Oatp1a1, probe radiolabeled S‐3100‐CA
T1 sequence (Q9QXZ6 1-670): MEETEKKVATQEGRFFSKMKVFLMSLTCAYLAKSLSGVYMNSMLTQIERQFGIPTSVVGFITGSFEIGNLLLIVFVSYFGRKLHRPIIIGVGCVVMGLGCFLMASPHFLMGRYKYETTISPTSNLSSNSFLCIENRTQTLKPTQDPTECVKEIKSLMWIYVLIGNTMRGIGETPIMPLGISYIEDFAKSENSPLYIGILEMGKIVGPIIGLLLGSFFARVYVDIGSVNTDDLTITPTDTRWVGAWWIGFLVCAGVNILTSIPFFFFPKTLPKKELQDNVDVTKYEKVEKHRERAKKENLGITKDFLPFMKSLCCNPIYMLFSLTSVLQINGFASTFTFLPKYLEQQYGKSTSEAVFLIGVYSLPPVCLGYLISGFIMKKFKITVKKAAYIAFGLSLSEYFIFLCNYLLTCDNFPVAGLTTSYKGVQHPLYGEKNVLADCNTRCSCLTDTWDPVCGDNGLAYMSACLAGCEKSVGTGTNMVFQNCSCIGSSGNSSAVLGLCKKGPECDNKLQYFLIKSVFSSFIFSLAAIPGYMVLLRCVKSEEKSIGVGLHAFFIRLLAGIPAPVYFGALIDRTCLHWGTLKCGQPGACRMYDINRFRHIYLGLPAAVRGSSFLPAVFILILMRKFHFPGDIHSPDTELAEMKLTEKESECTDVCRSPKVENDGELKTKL
Method: (§1) Transport experiments were conducted approximately 24 h post‐transfection. The experiments were initiated by aspirating culture medium and addition of pre‐warmed radiolabeled substrate solution (final 1.0% of acetonitrile or 0.9% of ethanol in phosphate‐buffered saline (PBS[−])) to each well. After a 10‐min incubation, cells were washed twice with 1 ml of ice‐cold PBS(−) and lysed with 700 μl of 1.0 M NaOH for 3 h or more at room temperature. The lysate was transferred to a 1.5‐ml tube, and neutralized with 350 μl of 2.0 M HCl and 350 μl of 2.0% sodium dodecyl sulfate (SDS) solution. From the lysate, 1.0 ml was transferred to a vial containing 10 ml of Emulsifier Scintillator Plus to measure the radioactivity in the LSC. The protein concentration of the cell lysate was also measured using a Pierce™ BCA Protein Assay Kit (Thermo Fisher Scientific, Inc.), which was used to normalize, according to the cell number, the radioactivity in the cell lysate extract. The protein assay was performed in duplicate. Each sample type was assayed in triplicate wells, and each run was performed twice. […] Each sample type was assayed in triplicate wells.

various OATPs = assay: Inhibition of S‐3100‐CA uptake by OATP inhibitors, various OATPs; format: in vitro ADME, mouse, human; conditions: inhibitor at 100 μM
Method: 293FT cells were purchased from Thermo Fisher Scientific, Inc.. The cells were grown in Dulbecco's modified Eagle medium (supplemented with 4.5 g/L glucose and 2 mM L‐glutamine) at 37°C, 5% CO2, and 95% humidity. The cells were passaged 3 times per week by harvesting cells using trypsin and plating at a density of 1.0 × 10^4 cells/cm^2 in a 10 cm cell culture plate for maintenance culture. The 293FT cells were detached using trypsin and re‐seeded at a density of 2.5 × 10^4 cells/cm^2 in BioCoat™ Collagen I 6‐well plates (Corning Inc.) for transfection and then treated with 1.2 μg of plasmid vector and 3.2 μl of Lipofectamine™ 2000 Transfection Reagent (Thermo Fisher Scientific, Inc.) according to the manufacturer's instructions. After a 3‐h treatment, the transfection medium was replaced with a fresh cell culture medium and incubated at 37°C with 95% humidity and 5% CO2 until ready for the assay.
Transport experiments were conducted approximately 24 h post‐transfection. […] From the lysate, 1.0 ml was transferred to a vial containing 10 ml of Emulsifier Scintillator Plus to measure the radioactivity in the LSC. The protein concentration of the cell lysate was also measured using a Pierce™ BCA Protein Assay Kit (Thermo Fisher Scientific, Inc.), which was used to normalize, according to the cell number, the radioactivity in the cell lysate extract. […]

mouse Oatp1a4 = target: T2, mouse Oatp1a4 (Mus musculus, UniProt Q9EP96); assay: in vitro; conditions: 293FT cells transiently transfected with mouse Oatp1a4, probe radiolabeled S‐3100‐CA
T2 sequence (Q9EP96 1-670): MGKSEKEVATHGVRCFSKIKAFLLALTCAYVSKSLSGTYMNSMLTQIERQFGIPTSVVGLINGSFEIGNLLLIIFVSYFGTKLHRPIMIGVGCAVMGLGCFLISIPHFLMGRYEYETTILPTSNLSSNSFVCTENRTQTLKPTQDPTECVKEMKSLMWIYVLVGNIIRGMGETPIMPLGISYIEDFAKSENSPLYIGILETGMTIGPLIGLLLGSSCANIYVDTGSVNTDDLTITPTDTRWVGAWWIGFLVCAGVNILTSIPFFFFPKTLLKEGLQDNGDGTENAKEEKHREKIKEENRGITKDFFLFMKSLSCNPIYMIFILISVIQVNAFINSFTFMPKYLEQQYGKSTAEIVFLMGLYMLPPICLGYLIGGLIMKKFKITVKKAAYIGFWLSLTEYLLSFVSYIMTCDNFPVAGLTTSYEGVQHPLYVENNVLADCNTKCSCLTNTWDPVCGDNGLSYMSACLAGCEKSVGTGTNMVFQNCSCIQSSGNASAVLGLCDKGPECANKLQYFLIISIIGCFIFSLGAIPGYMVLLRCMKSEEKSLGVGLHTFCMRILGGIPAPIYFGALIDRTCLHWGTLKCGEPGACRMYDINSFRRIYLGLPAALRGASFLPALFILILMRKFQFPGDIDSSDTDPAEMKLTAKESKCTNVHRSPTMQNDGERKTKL
Method: as §1

inhibition at 10 min, 10 µM (mouse Oatp1a1): > 50%
inhibition at 10 min, 10 µM (mouse Oatp1a4): > 50%
SMILES: CO[C@H]1/C=C/O[C@@]2(C)Oc3c(C)c(O)c4c(O)c(cc(O)c4c3C2=O)NC(=O)/C(C)=C\C=C\[C@H](C)[C@H](O)[C@@H](C)[C@@H](O)[C@@H](C)[C@H](OC(C)=O)[C@@H]1C [RSV, rifamycin SV]
Inhibition of S‐3100‐CA uptake (in words) (various OATPs): inhibited uptake via all OATPs other than human OATP2B1
